Consider five compounds from paper PMC4130364, “Kinetics of Mushroom Tyrosinase and Melanogenesis Inhibition by N-Acetyl-pentapeptides” (The Scientific World Journal, 2014).

pIC50, pKi: −log10 of the molar value.

One series concerns B16F10 melanoma cells. Description: Assessment of cellular melanin content (α-MSH-induced melanogenesis). Type of series: cell-based, mouse. On the procedure: Cellular melanin content was determined as described previously. Briefly, 1 × 10^5 B16F10 cells were seeded in 24-well plates and cultured at 37°C and 5% CO2 for 48 h. Subsequently, the cells were treated with 100 nM α-MSH for 24 h, followed by various concentrations (0, 0.1, 0.5, and 1 mg/mL) of Ac-P4 or kojic acid for 24 h. The cells were washed twice with PBS and cell pellets were then dissolved in 100 μL of 1 N NaOH in 10% DMSO, for 1 h at 80°C. The relative melanin content was determined by measuring the absorbance at 405 nm, using the ELISA reader (TECAN, Austria). The melanin content was calculated using the following equation: (Δsample/Δcontrol) × 100%. All determinations were performed in triplicate.

The next series relates to diphenolase. Also noted: method as in PMID 7714722. Conditions: ref [40], [41]; cited from earlier work.
The target in series [1] is T1, mushroom tyrosinase (Agaricus bisporus, UniProt C7FF04). The series is described as follows: Inhibitory effect on mushroom tyrosinase (diphenolase activity, oxidation of L-DOPA). Type of series: biochemical. Conditions: for IC50: 1 mM L-DOPA substrate, 25°C, 30 min, means ± SD of three replicates, read-out: IC50 against diphenolase activity of mushroom tyrosinase (converted). On the procedure: In a 96-well plate, 20 μL of 0, 0.01, 0.05, 0.1, 0.2, 0.5, and 1 mg/mL of N-acetyl-pentapeptides was mixed with 160 μL of 1 mM L-DOPA. After 20 μL of 212.65 μg/mL of mushroom tyrosinase (in 50 mM potassium phosphate buffer) was added, the solutions were incubated at 25°C for 30 min. All experiments were conducted in triplicate. The absorbance was measured at 475 nm by using an ELISA reader (TECAN, Austria). The tyrosinase inhibitory activity was calculated using the following equation: [(Δcontrol − Δsample)/Δcontrol] × 100%. The IC50 value was determined using regression of a constructing dose-response curve at which 50% target activity is lost.

Series [2] concerns the target T1, mushroom tyrosinase. The series is described as follows: Kinetic analysis of tyrosinase inhibition (Lineweaver-Burk plots). Type of series: biochemical. Conditions: for Inhibition type: Lineweaver-Burk plot analysis; for K IS: inhibition constant from secondary plot (enzyme-substrate complex); for K IS / pKi: L-DOPA 0.25-4 mM, inhibitor 0, 0.1, 0.2 mg/mL; for pKi: inhibition constant from secondary plot. On the procedure: In a 96-well plate, the kinetic properties of N-acetyl-pentapeptides (20 μL of 0, 0.1, and 0.2 mg/mL) in the inhibition of tyrosinase (20 μL of 212.65 μg/mL) were determined using various concentrations of L-DOPA (160 μL of 0.25, 0.5, 1, 2, and 4 mM) as substrates. The reaction mixture was measured using an ELISA reader at 475 nm for 10 min. All experiments were conducted in triplicate. The inhibition mechanism was assessed using Lineweaver-Burk plots, and the inhibition constants K IS and K I were obtained from second plots of the apparent 1/V max and apparent K m/V max against the inhibitor concentration, respectively, as described by Liao et al..

For another series, the system named is B16F10 cells. Description: Cell viability assay (MTT). Type of series: cell-based, mouse. Conditions: 0.1 to 1 mg/mL, 24 h. Here is the method:
B16F10 cells were cultured in Dulbecco's modified Eagle's medium (DMEM; Gibco Life Technologies, Carlsbad, CA, USA), supplemented with 10% fetal bovine serum, 100 units/mL of penicillin G, 100 μg/mL of streptomycin, and 0.25 μg/mL of amphotericin, and then incubated at 37°C with 5% CO2. The viability of cells treated with N-acetyl-pentapeptides was determined using an MTT assay. Briefly, 3 × 10^4 B16F10 cells were seeded and adhered in 96-well plates. After 24 h, DMEM was removed and 200 μL of various concentrations of fresh DMEM and N-acetyl-pentapeptide solution were added, and the cells were incubated for 24 h. After incubation, the medium was removed, and 100 μL of MTT in PBS solution (0.5 mg/mL) was added to each well, and the cells were incubated for 40 min at 37°C. Subsequently, the MTT solution was removed and 100 μL of DMSO was added to each well, and the plate was gently shaken to dissolve the formazan crystals. The absorbance of each well was measured at 570 nm, using the ELISA reader. All determinations were performed in triplicate.

Series [3] has as its target T2, intracellular tyrosinase activity in B16F10 cells (Mus musculus, UniProt P11344).
T2 construct: Cell lysate; endogenous in cells; host or cells: B16F10 mouse melanoma cells (BCRC, Hsinchu, Taiwan), α-MSH-stimulated
T2 sequence (P11344 19-533): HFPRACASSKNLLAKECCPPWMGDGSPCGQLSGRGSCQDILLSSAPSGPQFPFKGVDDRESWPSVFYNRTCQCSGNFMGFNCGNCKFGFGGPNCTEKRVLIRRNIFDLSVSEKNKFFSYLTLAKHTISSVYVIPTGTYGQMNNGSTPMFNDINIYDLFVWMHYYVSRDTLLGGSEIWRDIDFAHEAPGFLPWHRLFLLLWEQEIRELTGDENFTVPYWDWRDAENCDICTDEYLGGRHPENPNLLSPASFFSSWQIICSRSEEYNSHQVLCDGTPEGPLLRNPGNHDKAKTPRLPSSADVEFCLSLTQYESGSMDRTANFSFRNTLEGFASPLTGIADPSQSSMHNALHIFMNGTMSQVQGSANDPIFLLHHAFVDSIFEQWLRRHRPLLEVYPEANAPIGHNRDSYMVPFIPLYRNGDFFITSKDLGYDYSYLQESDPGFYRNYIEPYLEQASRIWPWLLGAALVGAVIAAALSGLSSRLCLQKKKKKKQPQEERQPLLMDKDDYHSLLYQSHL
Description: Measurement of intracellular tyrosinase activity (α-MSH-induced). Type of series: cell-based. The settings on record: B16-F10, 1 mg/ml, 24 h after 100 nM α-MSH. On the procedure: Fig 1. Inhibitory effects of Ac-P4 on α-MSH-induced tyrosinase activity in B16F10 cells. Ac-P4 inhibited α-MSH-induced tyrosinase activity in a dose-dependent manner […]
Measurement of intracellular tyrosinase activity
The cells were seeded in 24-well plates (8 × 10^4 cells/well), and cultured in 37 °C, 5% CO2 for 24 h. Then the cells were treated with 100 nM α-MSH for 24 h and then added Ac-P4 for 24 h. Cells rinsed with PBS twice and lysed with phosphate buffer (pH 6.8) containing 1% Triton X-100 followed by freezing and thawing three times. Centrifugation at 15,000 rpm for 10 min obtained clarified lysates. Cell lysate (90 μL) mixed with fresh prepared L-DOPA (10 μL) at 37 °C for 30 min. Tyrosinase activity was evaluated by the absorbance at 475 nm using an ELISA reader (Tecan, […]
Tyrosinase activity (%) = (△Abssample/△Abscontrol) ×100%.
(also on this page, place not known: (mg/ml)control 0 0.1 0.5 Relative (% control) 0 50 150 200 250 α-MSH + α-MSH - + + + + * 1 of 100 Ac-P4 Tyrosinase activity)
(1 picture or pasted object on this page, not shown here)

T1 sequence (C7FF04 1-392): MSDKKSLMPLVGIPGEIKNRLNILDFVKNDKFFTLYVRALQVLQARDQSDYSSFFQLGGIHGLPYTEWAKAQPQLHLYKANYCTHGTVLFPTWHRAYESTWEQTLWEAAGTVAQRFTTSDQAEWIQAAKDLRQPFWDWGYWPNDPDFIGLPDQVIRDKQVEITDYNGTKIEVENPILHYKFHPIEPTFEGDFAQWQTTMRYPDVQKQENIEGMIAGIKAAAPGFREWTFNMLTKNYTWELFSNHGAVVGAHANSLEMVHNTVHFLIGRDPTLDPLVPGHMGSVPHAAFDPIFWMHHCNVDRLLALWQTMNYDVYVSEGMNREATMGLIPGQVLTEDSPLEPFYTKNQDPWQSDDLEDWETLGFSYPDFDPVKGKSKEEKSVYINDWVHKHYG

For orientation: pIC50 means the negative decadic logarithm of the IC50, by convention in mol/L. With `O=c1cc(CO)occ1O` [kojic acid, reference compound], the inhibition at 100 µg/mL in the series with B16F10 melanoma cells (Mus musculus, B16-F10, 0.1 mg/mL, 24 h after 100 nM α-MSH, read-out: inhibitory effect on melanin production) was determined as 47.2%. In addition, the inhibition at 500 µg/mL with B16F10 melanoma cells (Mus musculus, B16-F10, 0.5 mg/mL, 24 h after 100 nM α-MSH, read-out: inhibitory effect on melanin production) worked out at 70.6%. In addition, in the series on B16F10 melanoma cells (Mus musculus, B16-F10, 1 mg/mL, 24 h after 100 nM α-MSH, read-out: inhibitory effect on melanin production), the inhibition at 1000 µg/mL was found to be 98.6%. Also, the negative logarithm of the IC50 (pIC50) in the series on B16F10 melanoma cells (Mus musculus, B16-F10, B16F10, α-MSH-induced, reillustrated in molarity, read-out: IC50 for inhibitory effect on melanin content) is 2.82. Besides, the “inhibition type on diphenolase” value with diphenolase was “mixed-type”.

A word on the IC50: it is the concentration that inhibits the measured activity by half. In general, pKi refers to the Ki on a negative log10 scale, so that one unit is a factor of ten. As to Ac-KSRFR-OH [Ac-P2, Ac-KSRFR], the IC50 at mushroom tyrosinase [1] is 1060 µM. At mushroom tyrosinase [1] (peptide concentration 1 mg/mL), this compound registered a lag time of 80 s. On mushroom tyrosinase [2], the Inhibition type entry was “Mixed”, the “K IS” value worked out at 2.003 mg/mL and the pKi was 3.42.

On to Ac-KSSFR-OH [Ac-P3, Ac-KSSFR], for which, on mushroom tyrosinase [1], the IC50 was 1220 µM. This compound also showed a lag time on mushroom tyrosinase [1] (peptide concentration 1 mg/mL) of 70 s. Besides, on mushroom tyrosinase [2], the Inhibition type result is recorded as “Mixed”, the “K IS” value worked out at 1.685 mg/mL and the pKi is 3.38.

As to Ac-RSRFK-OH [Ac-P1, Ac-RSRFK], on mushroom tyrosinase [1], the IC50 was 1020 µM. The same compound returned a lag time at mushroom tyrosinase [1] (peptide concentration 1 mg/mL) of 110 s. In addition, at mushroom tyrosinase [2], the Inhibition type result was “Mixed”, the “K IS” value came out at 1.278 mg/mL and the pKi is 3.43.

Regarding Ac-RSRFS-OH [Ac-P4, Ac-RSRFS], the lag time is 80 s at mushroom tyrosinase [1] (peptide concentration 0.5 mg/mL (b28 words it as concentrations less than 0.5 mg/mL)) and 500 s on mushroom tyrosinase [1] (peptide concentration 1 mg/mL). The Inhibition type result at mushroom tyrosinase [2] was “Mixed”. Moreover, the “K IS” value at mushroom tyrosinase [2] was 0.517 mg/mL. Further, the “cytotoxicity in B16F10 cells” value with B16F10 cells was “did not induce any significant cytotoxicity”. Besides, the “inhibitory effect on melanin production” value in the series on B16F10 melanoma cells (0.1 mg/mL, 24 h after 100 nM α-MSH) is listed as 48.63%; in the series on B16F10 melanoma cells (0.5 mg/mL, 24 h after 100 nM α-MSH) it was 78.18%; in the series with B16F10 melanoma cells (1 mg/mL, 24 h after 100 nM α-MSH) it was 94.7%. Also, the “fold stronger than kojic acid in inhibiting melanin formation” value in the series on B16F10 melanoma cells (ratio of melanin content IC50s (mM)) was 16.7 fold. For the same compound, the inhibition at 1000 µg/mL in series [3] came to 57.9%.
